The text below walks through data of patent US6613797B2, “Xanthone analogs for treating infectious diseases and complexation of heme and porphyrins” (Interlab, Inc., priority 1999, dated 2003).

Assay [1] deals with intracellular amastigotes of Leishmania mexicana M379. The experiment in a line: intracellular amastigote assay in infected murine macrophages. The assay is classed as cell-based. Conditions: Leishmania mexicana, Macrophage, read-out: IC50, anti-leishmanial activity; for pIC50: intracellular amastigote method. How it is done: Bone-marrow-derived macrophages (BALB/c) were cultured with L-cell-conditioned medium for 5-7 days at 35° C. After this period of incubation, mature macrophages were transferred to Labtek 4-chamber slides containing DMEM (Dulbecco's Modified Eagle's Medium) and 10% fetal calf serum. 50,000 cells were seeded in each chamber and allowed to attach overnight at 37° C. in a humidified incubator flushed with 5% CO2. On the next day the macrophages were infected at an MOI (Multiplicity of Infection) of 10:1 with stationary promastigotes of L. mexicana. After twenty-four hours, the medium was removed and fresh medium was added containing various drug concentrations (0-5 μM). Following incubation for an additional forty-eight hours, one set of slides were fixed in methanol, dried, and stained with Giemsa stain. Fresh medium and drug were added to a parallel set of chamber slides and incubated for another 48 hours before staining. […] Microscopic inspection permitted determination of % of infected macrophages and the number of amastigotes per 100 macrophages. The IC50 value is that concentration of drug that reduces the amastigote number by 50% relative to drug-free controls. Results also were obtained in parallel fashion with macrophages.
Intracellular amastigote studies. […] Because the amastigote stage is the only relevant clinical form of the parasites, we examined the activity of the nitrogenated xanthones against the heme-auxotrophic, intracellular amastigote form of L. mexicana. Stationary promastigotes of L. mexicana M379 rapidly invaded murine peritoneal macrophages obtained from BALB/c mice and incubated at 35° C. producing heavily burdened cells with 10 to 50 amastigotes per macrophage within 24 hours. An experiment was performed to investigate the ability of selected xanthones to reduce the number of intracellular amastigotes using this model. The IC50 value is that concentration of drug required to reduce the intracellular parasite burden by 50% relative to a drug-free control chamber. We tested the xanthone series against amastigote-infected murine peritoneal macrophages. Macrophages were seeded into Labtek chamber slides (25,000 per well/8 chamber slide) and allowed to incubate overnight in Dulbecco's Modified Eagle Medium (DMEM) supplemental with 10% fetal calf serum. On the next day the cells were infected with L. mexicana promastigotes at an MOI of 5:1 and then incubated for 24 hours at 35° C. After incubation, the monolayers were washed with buffer and medium containing varying concentrations of each xanthone (0 to 10 μM) was added to each chamber. After 48 hours of incubation (i.e., Day 3 of the experiment) one set of slides was removed, fixed with methanol, and stained with Giemsa. For another set of slides, we replenished the culture medium, added fresh drug to each well as appropriate, and then incubated the chambers for another 48 hours before staining with Giemsa. IC50 values were then averaged for 3 separate experiments and the results are presented in Table 4 and graphically in FIG. 7. […] The IC50 values recorded for C5 and C6 exposure for 96 hours of treatment were 6 nM and 2 nM.

Assay [2] in a line: in vitro heme aggregation (polymerization) assay. The class given is biochemical. How it is done:
Heme polymerization was carried out in 0.02 M phosphate buffer, pH 5.2 at 37° C. in the absence of protenis. A 10 mM stock solution of hemin chloride in 0.1 M NaOH wa prepared freshly and incuated at 37° C. for at least 1 hour to effect complete dissolution. Xanthones were dissolved in dimethylformamide at 10 mM and diluted into 10 ml of pre-warmed phosphate solution to a final concentraion of 25 μm. […] 25 μl of dimethylformaide wa added to the control smample. After 7, 30, 60, 120 and 190 minutes of incugation at 37° C., a 1 ml aliquot was withdraqwn, tranferred into an Eppendorf tube, and centrifugted at 14,000 g for 2 minutes at room temperature to pellet the precipitate. The soluble fraction was then transferred to a semi-microcuvette (polymethyacrylate, VER), and its absoprtion was measured at 360 nm against a blank of the test compound in buffer.
The reactions were allowed to proceed for 2 hours in a 37° C. waterbath. After incubation, the polymer was pelleted as described above and the absorption (360 nm) of each soluble fraction was measured against a blank containing the drug alone in buffer. The IC50 values were determined by nonlinear regression analysis of the dose-response curves of percent inhibition of heme polymerization vs. drug concentration.

Assay [3] deals with Plasmodium falciparum D6 strain. The assay is described as follows: in vitro anti-malarial activity, [3H]-ethanolamine incorporation method. The class given is cell-based. Conditions: Plasmodium falciparum, D6. How it is done: Cultures were maintained at 37° C. in a gas mixture of 5% oxygen, 5% CO2, and 90% nitrogen.
[^3H]-ethanolamine was obtained from American Radiolabeled Chemicals, Inc., St. Louis, Mo. Experiments were conducted in 96 well plates in a total volume of 200 μl at a final red blood cell concentration of 2% (v/v). An initial parasitemia of 0.2 to 0.5% was attained by addition of normal uninfected red cells. Radiolabeled ethanolamine was added after 48 hours of incubation and the experiment was terminated after 72 hours by collecting the cells onto glass fiber filters with an automated multiwell harvester.
Stock solutions of the various Formula X1 compounds were dissolved in DMSO at a concentration of 1 mM and diluted in complete medium (including 10% human serum) to provide 10X stock concentrations in the range of 1 to 10,000 nM.

The next assay concerns Candida albicans. The experiment in a line: anti-Candida activity, MIC by visual inspection. The assay is classed as cell-based. The note with it: conversion of the MIC, read-out: IC50 corresponding to the MIC against Candida albicans. How it is done:
The minimum inhibitory concentration (MIC) of formula X1 compounds against a clinical isolate of Candida albicans was determined using the following method. […] The determination of this concentration is made by visual inspection; there is no visible growth in a tube containing the MIC of the formula X1 compound whereas visible growth is present in tubes containing sub-MIC concentrations of the compound.
Candida albicans was grown to midlog-phase in Luria-Bertani broth (10 grams Bacto-tryptone, 5 grams Bacto-yeast extract and 10 grams NaCl per liter) and then inoculated into sterile test tubes containing LB broth to an initial density of 10^3/ml. The formula X1 compound to be tested is dissolved in dimethylsulfoxide (DMSO) at a concentration of 1 mM and added to each tube at serial dilutions (1 μM, 10 μM, 25 μM, 50 μM, 100 μM and 0 μM). The tubes are incubated at 35° C. for 15-18 hours and then visually inspected.

Assay [4] relates to Leishmania donovani. The experiment in a line: anti-Leishmania activity, promastigote radiolabeled thymidine uptake assay. The assay is classed as cell-based. How it is done:
Leishmania donovani was cultivated in Schneider's medium (Gibco, Grand Island, N.Y.) according to the methods described by Grogl et al. (1992). The in vitro susceptibility of L. donovani to Formula X1 compounds was determined using the radiolabeled thymidine uptake assay essentially as described by Grogl et al. (1992). Briefly, promastigotes were cultivated at 25° C. in Schneider's medium supplemented with 20% inactivated fetal calf serum and 100 μg/mL of gentamicin. Cells were maintained in log phase by seeding at 1×10^6/mL with subculturing when cultured densities approached 4×10^7/mL before reaching their maximal density. For the assay, early log phase promastigotes were counted on a hemacytometer and resuspended at a concentration of 1-2×10^6 cell/mL in assay media (Schneider's medium plus 10% fetal bovine serum). Ten-fold serial dilutions of each test compound were prepared as described above and added to 180 μL of the parasite suspension. After incubation for 24 hours at 25° C., methyl-^3H-thymidine was added to each sample for a final concentration of 1-2 μCi per well. Each sample was then incubated for an additional 18 hours prior to harvesting. After this incubation time, each sample was aspirated onto a filter mat, washed thoroughly with deionized water, dried and then counted in a scintillation counter with scintillation cocktail. […]

For assay [5], the system named is malaria Plasmodium parasites. The note with it: rufigallol combined with exifone; cited from earlier work.
Assay [6] has as its system Leishmania donovani. The note with it: Table 2; literature reported value; cited from earlier work.
Setting [7] is: Table 1, reproduced from U.S. Pat. No. 5,977,077, read-out: IC50, μM vs. Plasmodium.

pIC50: −log10 of the molar value. Values after ≈ are worked out from the molar mass of the structure shown. Read-outs that look alike come from different tables or passages of the source.

As a reminder, the pIC50 is −log10 of the IC50, conventionally taken in molar units. As to `O=c1c2ccc(O)c(O)c2oc2c(O)c(O)c(O)cc12` [2,3,4,5,6-pentahydroxyxanthone], the IC50 in assay [1] was ~1 µg/mL; in assay [2] (Table 3, 25 μM heme, pH 5.2, 37° C., 2 hours, average of at least two determinations, read-out: IC50, μM in vitro heme polymerization), 1.2 µM; in assay [3] (Table 3, read-out: IC50 μM, P. falciparum clone D6), 0.4 µM; in the assay on Candida albicans it was ~10 µg/mL (≈ 36.2 µM). Moreover, the negative-log IC50 (pIC50) in assay [1] is ~5.30; in assay [2] (text b143, read-out: IC50, inhibition of heme polymerization) it was 5.92.
Consider `O=c1c2cc(O)c(O)cc2oc2cc(O)c([C@@H]3O[C@H](CO)[C@@H](O)[C@H](O)[C@H]3O)c(O)c12` [Mangiferin, reference compound], for which the IC50 in the assay on Leishmania donovani [4] (Table 2, read-out: IC50 mg/ml for Leishmania) was > 0.05 mg/mL; in assay [3] (setting [7]), 50 µM.
For `COc1c(O)cc2oc3cc(O)c(CC=C(C)C)c(O)c3c(=O)c2c1CC=C(C)C` [Mangostin, reference compound], the IC50 stood at 0.00041 mg/mL (≈ 0.999 µM) in the assay on Leishmania donovani [4] (read-out: IC50 mg/ml for Leishmania), 0.41 µg/mL in assay [1] and 5 µM in assay [3] (setting [7]). In addition, the pIC50 in assay [1] is 6.00.
Regarding `O=C1c2cc(O)c(O)c(O)c2C(=O)c2cc(O)c(O)c(O)c21` [rufigallol, 1,2,3,5,6,7,-hexahydroxy-9,10-anthraquinone], in assay [5], the “increase in potency against malaria Plasmodium parasites” value is ~350 fold.
Turning to “Stibogluconate [Stibogluconate [Sodium Antimony (V) Gluconate]]”, the “IC50 mg/ml for Leishmania” value in the assay with Leishmania donovani [6] was 0.1 to 1.0 literature reported value mg/ml.
